As a reminder, the IC50 is the midpoint of a concentration-inhibition curve.

The structures appear in SMILES notation.

The target in one test is T1, NMDA receptor (Rattus norvegicus, UniProt P35439).
T1 construct: After the rats were decapitated, the prefrontal cortex and hippocampus were rapidly separated on ice; from tissue; host or cells: SD male rat prefrontal cortex and hippocampus, crude synaptosomes
As to the kind of experiment: NMDA receptor agonistic properties in rat crude synaptosomal proteins (maximum [3H]-MK-801 binding vs 1 mM glycine). In kind it is biochemical. To be noted: maximum [3H]-MK-801 binding % relative to 1 mM glycine; 50 μM glutamic acid. On the procedure:
(§1) After the rats were decapitated, the prefrontal cortex and hippocampus were rapidly separated on ice and weighed, 10 volumes of 50 mM Tris-HCl buffer (50 mM Tris-HCl, 5 mM MgCl2·6H2O, 1 mM EDTA, 0.5% (W/V) BSA, 1 mM PMSF, 0.32 M sucrose, pH 7.4) was added, and the mixture was homogenized for five times at 1500 revolutions/min with 30 s each time. A homogenate was centrifuged for 10 min at 1000×g, and a supernatant was taken and centrifuged for 10 min at 40,000×g, the precipitates were collected, re-suspended with volumes of Tris-HCl buffer, incubated at 37° C. for 10 min, and centrifuged for 10 min at 40,000×g, finally the precipitates were re-suspended with the above buffer, aliquoted and stored at −80° C. for later use.
(3) Detection of Influence of Tested Medicines on NMDA Receptor Agonistic Properties in Rat Crude Synaptosomal Proteins
100 μg of rat crude synaptosomal proteins was added to all tubes respectively. 50 μl of 5,7-dichlorokynurenic acid was added to a non-specific binding tube to achieve a final concentration of 10 μM. All tubes were preloaded with 50 μM of glutamic acid, and the materials were reacted for 15 min in advance. 20 μL of control drug at corresponding concentration was added to the test tube, and then reacted for 15 min. 1 mM glycine was added to the maximum reaction tube. A volume of 30 μl of labeled ligand [^3H]-MK-801 was successively added to all tubes to achieve a final concentration of 10 nM, and reacted for 15 min. All reaction tubes were supplemented to a volume of 500 μl with 50 mM Tris-HCl buffer (50 mM Tris-HCl, 5 mM MgCl2·6H2O, 1 mM EDTA, 0.5% (WN) BSA, 0.1% NaN3, pH 7.4). A reaction was carried out at 37° C. for 15 min. A type-49 glass fiber filter membrane was prepared and a sample was applied at the same time. The filter membrane was placed in a multi-head cell collector, and the reaction system was subjected to suction filtration under negative pressure and washed with an ice-cold 50 mM Tris-HCl buffer, 10 ml each time, for a total of 5 times. After suction drying, 1 ml of scintillation liquid was added to the filter membrane, the filter membrane was placed on the shaker for shaking for 1.5 h and then placed in the liquid scintillation counter on the next day to determine the radioactive intensity.
In an agonistic experiment, maximum [^3H]-MK-801 binding %=((tested compounds cpm−5,7 dichlorokynurenic acid cpm)/(1 mM glycine cpm−5,7 dichlorokynurenic acid cpm))×100%.
As for `CC(C)(C)OC(=O)N1CC2(C1)NCCS2` [A-002], the “Maximum agonistic efficacy (%)” value came to 45%.
As to `CC(C)(C)OC(=O)N1CCC2(C1)NCCS2` (stereo not drawn) [A-016], the “Maximum agonistic efficacy (%)” value came to 56%.
Still for that read-out and setting: the figure for `CC(C)(C)OC(=O)N1CCC2(CC1)NCCS2` [A-030] is 39%; for `CC(=O)N1CCC2(CC1)NCCS2` [A-031] it is 52%; for `Cl.N[C@@H](CO)C(=O)N1CCC2(CC1)NCCS2` [A-035] it is 19%.
Still for that read-out and setting: as for `CC(C)[C@H](N)C(=O)N1CCC2(CC1)NCCS2.Cl` [A-036], the figure is 28%.
On the same count and under the same terms, the figure for `CC(C)(C)OC(=O)N1CCCC2(C1)NCCS2` (stereo not drawn) [A-044] is 28%.
For the molecule `C[C@@H](O)[C@H](N)C(=O)N1CCCC2(C1)NCCS2.Cl` (stereo partly drawn) [A-048], the “Maximum agonistic efficacy (%)” value came to 38%.
The same measure, in the same setting: the figure for `CC(=O)N1CC2(C1)SCCN2C(C)=O` [A-059] is 33%.
Same read-out and setting: as for `CC(=O)N1CCSC12CN(C(=O)[C@@H](N)C(C)C)C2.Cl` [A-068], the figure is 48%; as for `CC(=O)N1CCSC12CCN(C(=O)[C@@H](N)[C@@H](C)O)C2.Cl` (stereo partly drawn) [A-074], 38%.
In the case of `CC(=O)N1CCSC12CCN(C(=O)OC(C)(C)C)CC2` [A-078], the “Maximum agonistic efficacy (%)” value worked out at 56%.
On the same count and under the same terms, as for `CC(=O)N1CCC2(CC1)SCCN2C(C)=O` [A-079], the figure is 41%; as for `CC(=O)N1CCSC12CCCN(C(=O)[C@@H](N)[C@@H](C)O)C2.Cl` (stereo partly drawn) [A-090], 36%; as for `CC(C)C(=O)N1CCSC12CNC2.Cl` [A-093], 65%.
Still for that read-out and setting: the figure for `CC(=O)N1CCC2(CC1)SCCN2C(=O)C(C)C` [A-111] is 38%; for `CC(C)C(=O)N1CCSC12CCN(C(=O)[C@@H](N)[C@@H](C)O)CC2.Cl` [A-114] it is 35%; for `CC(=O)N1CCCC2(C1)SCCN2C(=O)C(C)C` (stereo not drawn) [A-119] it is 35%.
The same measure, in the same setting: the figure for `CC(C)C(=O)N1CCSC12CCCN(C(=O)[C@@H](N)[C@@H](C)O)C2.Cl` (stereo partly drawn) [A-122] is 38%; for `C[C@@H](O)[C@H](N)C(=O)N1CC2(C1)SCCN2C(=O)C(C)(C)C.Cl` [A-130] it is 43%; for `CC(C)CN1CCSC12CN(C(=O)[C@@H](N)[C@@H](C)O)C2.Cl` [A-162] it is 38%.

The target in another test is T1, NMDA receptor. As to the kind of experiment: Inhibition of [3H]-MK-801 binding to rat crude synaptosomes (receptor ligand binding assay).
Settings: not given
On the procedure:
The affinity of the tested compounds on NMDA receptor was researched by receptor ligand binding assays.
Ten SD male rats of SPF grade were ordered and acclimated for 7 days for future use.
as §1
(2) Detection of Inhibitory Function of Tested Medicines on Binding of Crude Synaptosomes in Rats to [^3H]-MK-801
50 μg of rat crude synaptosomal proteins was added to all tubes respectively. A volume of 50 μl of MK-801 (dizocilpine) was added to a non-specific binding tube to achieve a final concentration of 100 μM, and the materials were reacted for 15 min in advance. 20 μL of control drug at corresponding concentration was added to the test tube for reaction for 15 min. A volume of 30 μl of labeled ligand [^3H]-MK-801 was successively added to all tubes to achieve a final concentration of 10 nM. All reaction tubes were supplemented to a volume of 200 μl with 50 mM Tris-HCl buffer (50 mM Tris-HCl, 5 mM MgCl2·6H2O, 1 mM EDTA, 0.5% (WN) BSA, 0.1% NaN3, pH 7.4). A reaction was carried out at 37° C. for 10 min. A type-49 glass fiber filter membrane was prepared and a sample was applied at the same time. The filter membrane was placed in a multi-head cell collector, and a reaction system was subjected to suction filtration under negative pressure and washed with an ice-cold 50 mM Tris-HCl buffer, 10 ml each time, for a total of 5 times. After suction drying, 1 ml of scintillation liquid was added to the filter membrane, the filter membrane was placed on a shaker for shaking for 1.5 h and then placed in a liquid scintillation counter on the next day to determine the radioactive intensity.
GraphPad5.0 software was used to analyze the data, and the percentage of competitive inhibition was calculated through nonlinear fitting, wherein:
Percentage of competitive inhibition %=((total binding tube cpm−compound cpm)/(total binding tube cpm−non-specific binding tube cpm))×100%;
Specific binding amount=total binding amount−non-specific binding amount, wherein each binding site was determined by double compound tubes.
In turn, `CC(C)C(=O)N1CCSC12CNC2.Cl` [A-093] displayed an IC50 of 0.48 nM.

The same test, now with this note: affinity on NMDA; [3H]-MK-801 10 nM, rat prefrontal cortex and hippocampus crude synaptosomes; read-out: IC50.
For the molecule `CC(C)(C)OC(=O)N1CC2(C1)NCCS2` [A-002], the IC50 worked out at 0.33 nM.
Same read-out and setting: the figure for `CC(C)(C)OC(=O)N1CCC2(C1)NCCS2` (stereo not drawn) [A-016] is 0.35 nM; for `CC(C)(C)OC(=O)N1CCC2(CC1)NCCS2` [A-030] it is 0.35 nM.
Still for that read-out and setting: the figure for `CC(=O)N1CCC2(CC1)NCCS2` [A-031] is 0.35 nM.
On the same count and under the same terms, as for `Cl.N[C@@H](CO)C(=O)N1CCC2(CC1)NCCS2` [A-035], the figure is 0.88 nM; as for `CC(C)[C@H](N)C(=O)N1CCC2(CC1)NCCS2.Cl` [A-036], 0.89 nM; as for `CC(C)(C)OC(=O)N1CCCC2(C1)NCCS2` (stereo not drawn) [A-044], 0.66 nM.
Take `C[C@@H](O)[C@H](N)C(=O)N1CCCC2(C1)NCCS2.Cl` (stereo partly drawn) [A-048]: the IC50 came out at 0.55 nM.
Same read-out and setting: the figure for `CC(=O)N1CC2(C1)SCCN2C(C)=O` [A-059] is 0.75 nM; for `CC(=O)N1CCSC12CN(C(=O)[C@@H](N)C(C)C)C2.Cl` [A-068] it is 1.3 nM; for `CC(=O)N1CCSC12CCN(C(=O)[C@@H](N)[C@@H](C)O)C2.Cl` (stereo partly drawn) [A-074] it is 0.89 nM.
Still for that read-out and setting: as for `CC(=O)N1CCSC12CCN(C(=O)OC(C)(C)C)CC2` [A-078], the figure is 1.59 nM; as for `CC(=O)N1CCC2(CC1)SCCN2C(C)=O` [A-079], 1.25 nM.
The same measure, in the same setting: as for `CC(=O)N1CCSC12CCCN(C(=O)[C@@H](N)[C@@H](C)O)C2.Cl` (stereo partly drawn) [A-090], the figure is 0.45 nM; as for `CC(=O)N1CCC2(CC1)SCCN2C(=O)C(C)C` [A-111], 1.58 nM; as for `CC(C)C(=O)N1CCSC12CCN(C(=O)[C@@H](N)[C@@H](C)O)CC2.Cl` [A-114], 0.89 nM.
With `CC(=O)N1CCCC2(C1)SCCN2C(=O)C(C)C` (stereo not drawn) [A-119], the 50% inhibitory concentration (IC50) stood at 1.89 nM.
Same read-out and setting: the figure for `CC(C)C(=O)N1CCSC12CCCN(C(=O)[C@@H](N)[C@@H](C)O)C2.Cl` (stereo partly drawn) [A-122] is 1.65 nM; for `C[C@@H](O)[C@H](N)C(=O)N1CC2(C1)SCCN2C(=O)C(C)(C)C.Cl` [A-130] it is 0.48 nM.
Same read-out and setting: as for `CC(C)CN1CCSC12CN(C(=O)[C@@H](N)[C@@H](C)O)C2.Cl` [A-162], the figure is 0.45 nM.
